According to patent US20250195521A1 (Revolution Medicines, Inc., priority 2020, published 2025):
Values joined by “and” are separate entries in the source; they are usually repeats but may differ in a detail not shown here. Equal values may be shown once.

Assays:
KRAS G12C = KRAS G12C (Homo sapiens (Human), UniProt P01116+P62937, G12C); assay: Ras-Raf disruption/FRET/MOA assay (BRAF RBD, Cyclophilin A); type: biochemical; conditions: read-out: KRAS G12C FRET IC50
Summary of the method: (§1)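 TR-FRET readout: anti-His Eu-W1024 (10 nM) and anti-GST allophycocyanin (50 nM) added after 3 h, 25° C compound incubation, then 1.5 h more. Decrease in FRET ratio versus DMSO wells marks Ras:RAF disruption; IC50 reported.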

KRAS G12D = KRAS G12D (Homo sapiens (Human), UniProt P01116+P62937, G12D); assay: as above; type: biochemical; conditions: read-out: KRAS G12D FRET IC50
Summary of the method: as §1

KRAS G12S = KRAS G12S (Homo sapiens (Human), UniProt P01116+P62937, G12S); assay: as above; type: biochemical; conditions: read-out: KRAS G12S FRET IC50
Summary of the method: as §1

KRAS G12V = KRAS G12V (Homo sapiens (Human), UniProt P01116+P62937, G12V); assay: as above; type: biochemical; conditions: read-out: KRAS G12V FRET IC50
Summary of the method: as §1

KRAS G13C = KRAS G13C (Homo sapiens (Human), UniProt P01116+P62937, G13C); assay: as above; type: biochemical; conditions: read-out: KRAS G13C FRET IC50
Summary of the method: as §1

KRAS G13D = KRAS G13D (Homo sapiens (Human), UniProt P01116+P62937, G13D); assay: as above; type: biochemical; conditions: read-out: KRAS G13D FRET data IC50
Summary of the method: as §1

KRAS Q61H = KRAS Q61H (Homo sapiens (Human), UniProt P01116+P62937, Q61H); assay: as above; type: biochemical
Summary of the method: as §1

KRAS WT = KRAS WT (Homo sapiens (Human), UniProt P01116+P62937); assay: as above; type: biochemical; conditions: read-out: KRAS WT FRET data IC50
Summary of the method: as §1

NRAS G12C = NRAS G12C (Homo sapiens (Human), UniProt P01111+P62937, G12C); assay: as above; type: biochemical; conditions: read-out: NRAS G12C FRET data IC50
Summary of the method: (§2)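 Ras-GMPPNP (12.5 nM), BRAF RBD (50 nM) and 25 μM Cyclophilin A were incubated with compound for 3 h at 25° C, then detected 1.5 h with anti-His Eu and anti-GST APC; IC50 values follow from the reduced TR-FRET ratio.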

NRAS Q61K = NRAS Q61K (Homo sapiens (Human), UniProt P01111+P62937, Q61K); assay: as above; type: biochemical
Summary of the method: as §2

NRAS Q61R = NRAS Q61R (Homo sapiens (Human), UniProt P01111+P62937, Q61R); assay: as above; type: biochemical
Summary of the method: as §2

NRAS WT = NRAS WT (Homo sapiens (Human), UniProt P01111+P62937); assay: as above; type: biochemical
Summary of the method: as §2

NCI-H358 (K-Ras G12C) = assay: CellTiter-Glo cell viability assay, NCI-H358; type: cell-based, human; conditions: Homo sapiens, NCI-H358, 120 h, 5-day treatment; read-out: H358 Cell Viability assay data (K-Ras G12C, IC50)
Summary of the method: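 Viability read-out was luminescent (CellTiter-Glo) on day 5 of compound exposure in K-Ras G12C NCI-H358 cells. Values were expressed as percent of mean DMSO signal and fitted with a four-parameter logistic curve.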

[1] = molecular target: K-Ras G12C(GMP-PNP) binding to BRAF RBD (Homo sapiens (Human), UniProt P01116+P62937, G12C); assay: Disruption of BRAF RBD interaction with K-Ras (FRET / MOA assay), K-Ras G12C; type: biochemical; conditions: read-out: KRAS G12C FRET IC50
Summary of the method: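 Compounds promote ternary complex of nucleotide-loaded Ras (here K-Ras G12C·GMP-PNP; other Ras mutants substituted) with cyclophilin A, disrupting BRAF RBD binding. 10-point 3-fold series from 30 μM final, 3 h at 25 °C, then anti-His Eu (10 nM) and anti-GST APC (50 nM) for 1.5 h. TR-FRET ratio decrease versus DMSO gave IC50.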

[2] = system: Capan-1 cells (K-Ras G12V); assay: CellTiter-Glo cell viability, Capan-1; type: cell-based, human; conditions: Homo sapiens, CAPAN-1, 120 h, K-Ras G12V, 5-day treatment; read-out: Capan-1 Cell Viability IC50
Summary of the method: (§3)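 Viability read by luminescence on day 5 after direct compound addition to cells, following ~30 min room-temperature equilibration. Values expressed as percent of mean DMSO signal, curves fitted with a four-parameter logistic model.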

[3] = system: NCI-H358 cells (K-Ras G12C); assay: CellTiter-Glo cell viability, NCI-H358; type: cell-based, human; conditions: Homo sapiens, NCI-H358, 120 h, K-Ras G12C, 5-day treatment; read-out: H358 Cell Viability IC50
Summary of the method: as §3

K-Ras G12C(GMP-PNP) binding to BRAF RBD, sequence (P01116 other isoform, or with tags, fused parts or gaps G12C): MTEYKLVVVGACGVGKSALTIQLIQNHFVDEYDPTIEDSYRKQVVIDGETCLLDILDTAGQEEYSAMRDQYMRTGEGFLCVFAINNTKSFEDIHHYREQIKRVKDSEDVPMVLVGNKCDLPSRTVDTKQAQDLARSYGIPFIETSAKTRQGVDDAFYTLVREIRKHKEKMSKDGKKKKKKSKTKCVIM
K-Ras G12C(GMP-PNP) binding to BRAF RBD, sequence (P62937 whole entry): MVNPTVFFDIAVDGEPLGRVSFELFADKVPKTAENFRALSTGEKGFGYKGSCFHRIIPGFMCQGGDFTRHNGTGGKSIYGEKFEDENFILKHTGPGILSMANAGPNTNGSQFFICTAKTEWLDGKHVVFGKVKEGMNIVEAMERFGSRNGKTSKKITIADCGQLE
KRAS G12S, sequence (P01116 other isoform, or with tags, fused parts or gaps G12S): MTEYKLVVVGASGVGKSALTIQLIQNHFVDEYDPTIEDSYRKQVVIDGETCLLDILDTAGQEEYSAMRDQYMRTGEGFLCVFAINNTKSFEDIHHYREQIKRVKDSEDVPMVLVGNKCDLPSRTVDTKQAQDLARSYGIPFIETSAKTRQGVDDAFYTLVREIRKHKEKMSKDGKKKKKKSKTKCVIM
KRAS G12S, sequence (P62937 whole entry): as the sequence (P62937 whole entry) above
KRAS Q61H, sequence (P01116 other isoform, or with tags, fused parts or gaps Q61H): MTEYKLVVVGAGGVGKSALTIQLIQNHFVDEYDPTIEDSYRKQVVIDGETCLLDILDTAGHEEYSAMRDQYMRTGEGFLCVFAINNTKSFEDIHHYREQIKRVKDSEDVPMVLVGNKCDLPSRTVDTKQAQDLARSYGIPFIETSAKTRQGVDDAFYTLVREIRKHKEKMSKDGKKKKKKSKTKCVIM
KRAS Q61H, sequence (P62937 whole entry): as the sequence (P62937 whole entry) above
KRAS G12V, sequence (P01116 other isoform, or with tags, fused parts or gaps G12V): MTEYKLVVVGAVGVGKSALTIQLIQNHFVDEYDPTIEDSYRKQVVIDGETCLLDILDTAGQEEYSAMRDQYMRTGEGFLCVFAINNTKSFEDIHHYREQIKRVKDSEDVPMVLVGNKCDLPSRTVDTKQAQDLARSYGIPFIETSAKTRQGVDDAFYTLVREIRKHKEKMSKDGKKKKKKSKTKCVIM
KRAS G12V, sequence (P62937 whole entry): as the sequence (P62937 whole entry) above
KRAS G12D, sequence (P01116 other isoform, or with tags, fused parts or gaps G12D): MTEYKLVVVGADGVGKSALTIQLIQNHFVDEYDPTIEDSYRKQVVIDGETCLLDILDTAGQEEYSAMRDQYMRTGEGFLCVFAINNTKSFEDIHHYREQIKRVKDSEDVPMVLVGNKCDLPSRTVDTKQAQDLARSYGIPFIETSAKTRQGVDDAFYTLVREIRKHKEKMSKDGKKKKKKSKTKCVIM
KRAS G12D, sequence (P62937 whole entry): as the sequence (P62937 whole entry) above
NRAS Q61K, sequence (P01111 whole entry Q61K): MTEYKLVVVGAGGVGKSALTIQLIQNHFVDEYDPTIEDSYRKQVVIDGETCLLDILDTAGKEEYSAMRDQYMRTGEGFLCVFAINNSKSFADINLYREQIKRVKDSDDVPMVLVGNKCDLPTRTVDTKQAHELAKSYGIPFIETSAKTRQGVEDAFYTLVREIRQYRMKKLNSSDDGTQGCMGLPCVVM
NRAS Q61K, sequence (P62937 whole entry): as the sequence (P62937 whole entry) above
NRAS WT, sequence (P01111 whole entry): as the sequence (P01111 whole entry Q61K) above, with K61Q counted along it
NRAS WT, sequence (P62937 whole entry): as the sequence (P62937 whole entry) above
NRAS Q61R, sequence (P01111 whole entry Q61R): as the sequence (P01111 whole entry Q61K) above, with K61R counted along it
NRAS Q61R, sequence (P62937 whole entry): as the sequence (P62937 whole entry) above
KRAS G12C, sequence (P01116-2 other isoform, or with tags, fused parts or gaps G12C): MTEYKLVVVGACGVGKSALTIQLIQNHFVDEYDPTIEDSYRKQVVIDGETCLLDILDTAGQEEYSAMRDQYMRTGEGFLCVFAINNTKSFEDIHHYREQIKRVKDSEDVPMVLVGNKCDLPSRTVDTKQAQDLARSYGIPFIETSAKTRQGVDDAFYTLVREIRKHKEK
KRAS G12C, sequence (P62937 whole entry): as the sequence (P62937 whole entry) above
KRAS G13D, sequence (P01116 other isoform, or with tags, fused parts or gaps G13D): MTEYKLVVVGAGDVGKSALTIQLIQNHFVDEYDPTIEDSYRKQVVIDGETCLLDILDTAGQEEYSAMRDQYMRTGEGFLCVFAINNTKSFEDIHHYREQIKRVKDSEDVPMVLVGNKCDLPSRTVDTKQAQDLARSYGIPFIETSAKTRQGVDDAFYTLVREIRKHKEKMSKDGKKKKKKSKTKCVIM
KRAS G13D, sequence (P62937 whole entry): as the sequence (P62937 whole entry) above
KRAS WT, sequence (P01116 other isoform, or with tags, fused parts or gaps): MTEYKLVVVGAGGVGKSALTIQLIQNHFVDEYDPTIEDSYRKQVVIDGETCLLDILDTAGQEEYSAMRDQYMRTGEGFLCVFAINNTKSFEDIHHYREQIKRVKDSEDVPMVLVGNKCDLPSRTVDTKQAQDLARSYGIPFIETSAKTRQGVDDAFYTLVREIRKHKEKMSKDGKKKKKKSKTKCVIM
KRAS WT, sequence (P62937 whole entry): as the sequence (P62937 whole entry) above
NRAS G12C, sequence (P01111 whole entry G12C): as the sequence (P01111 whole entry Q61K) above, with G12C, K61Q counted along it
NRAS G12C, sequence (P62937 whole entry): as the sequence (P62937 whole entry) above
KRAS G13C, sequence (P01116 other isoform, or with tags, fused parts or gaps G13C): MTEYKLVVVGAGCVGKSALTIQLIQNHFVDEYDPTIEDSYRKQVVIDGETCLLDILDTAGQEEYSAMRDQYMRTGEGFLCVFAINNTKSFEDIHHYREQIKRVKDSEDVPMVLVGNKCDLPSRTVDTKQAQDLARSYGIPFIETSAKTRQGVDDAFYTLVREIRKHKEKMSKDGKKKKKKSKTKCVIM
KRAS G13C, sequence (P62937 whole entry): as the sequence (P62937 whole entry) above

SMILES | IC50 (KRAS G12C) | IC50 (KRAS G12D) | IC50 (KRAS G12S) | IC50 (KRAS G12V) | IC50 (KRAS G13C) [µM] | IC50 (KRAS G13D) | IC50 (KRAS Q61H) [µM] | IC50 (KRAS WT) | IC50 (NRAS G12C) | IC50 (NRAS Q61K) [µM] | IC50 (NRAS Q61R) [µM] | IC50 (NRAS WT) [µM] | IC50 (NCI-H358 (K-Ras G12C)) [µM] | IC50 [1] [µM] | IC50 [3] [µM] | IC50 [2] [µM]
CCn1c(-c2cccnc2[C@H](C)OC)c2c3cc(ccc31)-c1cc(O)cc(c1)C[C@H](NC(=O)C(C)C1CCOCC1)C(=O)N1CCC[C@H](N1)C(=O)OCC(C)(C)C2 (stereo partly drawn) [Compound A236] | 0.1 to 1 µM and 1 to 10 µM | 1 to 10 µM and > 10 µM | 0.1 to 1 µM and 1 to 10 µM | 0.1 to 1 µM and 1 to 10 µM | 0.1 to 1 | 0.1 to 1 µM and 1 to 10 µM | 0.01 to 0.1 | 0.1 to 1 µM and 1 to 10 µM | 0.1 to 1 µM and 1 to 10 µM | 0.1 to 1 | 1 to 10 | 0.1 to 1 | > 10 | > 10 | – | –
CCn1c(-c2cccnc2[C@H](C)OC)c2c3cc(ccc31)-c1csc(n1)C[C@H](NC(=O)[C@H](C(C)C)N(C)C(=O)N1CCC1C(=O)O)C(=O)N1CCC[C@H](N1)C(=O)OCC(C)(C)C2 (stereo partly drawn) [Compound A271] | 1 to 10 µM | > 10 µM | 1 to 10 µM | 1 to 10 µM | 1 to 10 | > 10 µM | 0.1 to 1 | 1 to 10 µM | 1 to 10 µM | 0.1 to 1 | 1 to 10 | 1 to 10 | > 10 | > 10 | – | > 10
CCn1c(-c2cccnc2[C@H](C)OC)c2c3cc(ccc31)-c1csc(n1)C[C@H](NC(=O)[C@@H]1CCO1)C(=O)N1CCC[C@H](N1)C(=O)OCC(C)(C)C2 [Compound A359] | 0.1 to 1 µM | 1 to 10 µM | 1 to 10 µM | 0.1 to 1 µM | 0.1 to 1 | 1 to 10 µM | 0.1 to 1 | 1 to 10 µM | 0.1 to 1 µM | 0.1 to 1 | 1 to 10 | 0.1 to 1 | 0.01 to 0.1 | 0.01 to 0.1 | 1 to 10 | 1 to 10

The next lines start with results.

IC50 (KRAS G12C) | IC50 (KRAS G12D) | IC50 (KRAS G12S) | IC50 (KRAS G12V) | IC50 (KRAS G13C) [µM] | IC50 (KRAS G13D) | IC50 (KRAS Q61H) [µM] | IC50 (KRAS WT) | IC50 (NRAS G12C) | IC50 (NRAS Q61K) [µM] | IC50 (NRAS Q61R) [µM] | IC50 (NRAS WT) [µM] | IC50 (NCI-H358 (K-Ras G12C)) [µM] | IC50 [1] [µM] | IC50 [3] [µM] | SMILES | IC50 [2] [µM]
0.1 to 1 µM | 0.1 to 1 µM | 0.1 to 1 µM | 1 to 10 µM | 0.1 to 1 | 0.1 to 1 µM | 0.01 to 0.1 | 0.1 to 1 µM | 0.1 to 1 µM | 0.1 to 1 | 0.1 to 1 | 0.1 to 1 | 0.01 to 0.1 | 0.1 to 1 | – | CCn1c(-c2cccnc2[C@H](C)OC)c2c3cc(ccc31)-c1csc(n1)C[C@H](NC(=O)[C@H](C(C)C)N(C)C(=O)N1CC[C@@]13CCCN(C)C3)C(=O)N1CCC[C@H](N1)C(=O)OCC(C)(C)C2 [Compound A468] | 0.1 to 1
0.1 to 1 µM | 0.1 to 1 µM | 0.1 to 1 µM | 1 to 10 µM | 0.1 to 1 | 0.1 to 1 µM | 0.1 to 1 | 0.1 to 1 µM | 0.1 to 1 µM | 0.1 to 1 | 1 to 10 | 0.1 to 1 | 0.1 to 1 | 0.1 to 1 | – | CCn1c(-c2cccnc2[C@H](C)OC)c2c3cc(ccc31)-c1csc(n1)C[C@H](NC(=O)[C@H](C(C)C)N(C)C(=O)N(C)C[C@H]1CCN1C)C(=O)N1CCC[C@H](N1)C(=O)OCC(C)(C)C2 [Compound A469] | 0.1 to 1
